# Data reported in patent US20230035892A1, “METHODS AND COMPOSITIONS FOR TREATING CANCER” (Flagship Pioneering Innovations V, Inc., priority 2019, published 2023).
# Columns and labels:
# Type in all cases: cell-based
# PANC1 = test: Proliferation, percent viability normalized to DMSO; settings: Homo sapiens, PANC-1
# Text: (§1) The GRK2 small molecule antagonist of Formula III-26 was used to evaluate the effect of a small molecule GRK2 antagonist on the proliferation of pancreatic cancer cell lines Miapaca2, Panc1, BXPC3, PAXF1657, PAXF1997 and Capan1. Values represent percent viability normalized to DMSO.
# PAXF1997 = test: as above
# Text: as §1
# BXPC3 = test: as above; settings: Homo sapiens, BXPC-3
# Text: as §1
# Capan1 = test: as above; settings: Homo sapiens, CAPAN-1
# Text: as §1
# MIAPACA2 = test: as above; settings: Homo sapiens, MIA PaCa-2
# Text: as §1
# PAXF1657 = test: as above
# Text: as §1
# [1] = tested on: pancreatic cancer cell lines; test: Long-term colony formation assay (10-14 days); settings: colony formation 10-14 days
# Text: Different concentrations of the compound of Formula III-26 were then used to evaluate its effect on pancreatic cancer cell line proliferation in a long-term colony formation assay (10-14 days).
compound,measurement,setting,value
Cn1c(CNc2cccc(C(=O)NCc3ccccc3C(F)(F)F)c2)nnc1-c1ccncc1 [Compound of Formula III-26],viability at 0.005 µM,"PANC1; Panc1, dose 0.005 μM",103%
same,viability at 0.014 µM,"PANC1; Panc1, dose 0.014 μM",112%
same,viability at 0.041 µM,"PANC1; Panc1, dose 0.041 μM",113%
same,viability at 0.123 µM,"PANC1; Panc1, dose 0.123 μM",113%
same,viability at 0.37 µM,"PANC1; Panc1, dose 0.370 μM",113%
same,viability at 1.111 µM,"PANC1; Panc1, dose 1.111 μM",113%
same,viability at 3.333 µM,"PANC1; Panc1, dose 3.333 μM",100%
same,viability at 10 µM,"PANC1; Panc1, dose 10.000 μM",85.2%
same,viability at 30 µM,"PANC1; Panc1, dose 30.000 μM",86.2%
same,viability at 0.005 µM,"PAXF1997; PAXF1997, dose 0.005 μM",111%
same,viability at 0.014 µM,"PAXF1997; PAXF1997, dose 0.014 μM",111%
same,viability at 0.041 µM,"PAXF1997; PAXF1997, dose 0.041 μM",112%
same,viability at 0.123 µM,"PAXF1997; PAXF1997, dose 0.123 μM",114%
same,viability at 0.37 µM,"PAXF1997; PAXF1997, dose 0.370 μM",118%
same,viability at 1.111 µM,"PAXF1997; PAXF1997, dose 1.111 μM",110%
same,viability at 3.333 µM,"PAXF1997; PAXF1997, dose 3.333 μM",104%
same,viability at 10 µM,"PAXF1997; PAXF1997, dose 10.000 μM",83.7%
same,viability at 30 µM,"PAXF1997; PAXF1997, dose 30.000 μM",81.4%
same,viability at 0.005 µM,"BXPC3; BXPC3, dose 0.005 μM",106%
same,viability at 0.014 µM,"BXPC3; BXPC3, dose 0.014 μM",105%
same,viability at 0.041 µM,"BXPC3; BXPC3, dose 0.041 μM",104%
same,viability at 0.123 µM,"BXPC3; BXPC3, dose 0.123 μM",104%
same,viability at 0.37 µM,"BXPC3; BXPC3, dose 0.370 μM",108%
same,viability at 1.111 µM,"BXPC3; BXPC3, dose 1.111 μM",102%
same,viability at 3.333 µM,"BXPC3; BXPC3, dose 3.333 μM",91.5%
same,viability at 10 µM,"BXPC3; BXPC3, dose 10.000 μM",77%
same,viability at 30 µM,"BXPC3; BXPC3, dose 30.000 μM",75.8%
same,viability at 0.005 µM,"Capan1; Capan1, dose 0.005 μM",107%
same,viability at 0.014 µM,"Capan1; Capan1, dose 0.014 μM",108%
same,viability at 0.041 µM,"Capan1; Capan1, dose 0.041 μM",112%
same,viability at 0.123 µM,"Capan1; Capan1, dose 0.123 μM",114%
same,viability at 0.37 µM,"Capan1; Capan1, dose 0.370 μM",112%
same,viability at 1.111 µM,"Capan1; Capan1, dose 1.111 μM",106%
same,viability at 3.333 µM,"Capan1; Capan1, dose 3.333 μM",100%
same,viability at 10 µM,"Capan1; Capan1, dose 10.000 μM",90%
same,viability at 30 µM,"Capan1; Capan1, dose 30.000 μM",95.4%
same,viability at 0.005 µM,"MIAPACA2; Miapaca2, dose 0.005 μM",102%
same,viability at 0.014 µM,"MIAPACA2; Miapaca2, dose 0.014 μM",105%
same,viability at 0.041 µM,"MIAPACA2; Miapaca2, dose 0.041 μM",108%
same,viability at 0.123 µM,"MIAPACA2; Miapaca2, dose 0.123 μM",111%
same,viability at 0.37 µM,"MIAPACA2; Miapaca2, dose 0.370 μM",114%
same,viability at 1.111 µM,"MIAPACA2; Miapaca2, dose 1.111 μM",99.3%
same,viability at 3.333 µM,"MIAPACA2; Miapaca2, dose 3.333 μM",86.6%
same,viability at 10 µM,"MIAPACA2; Miapaca2, dose 10.000 μM",66.1%
same,viability at 30 µM,"MIAPACA2; Miapaca2, dose 30.000 μM",40%
same,viability at 0.005 µM,"PAXF1657; PAXF1657, dose 0.005 μM",111%
same,viability at 0.014 µM,"PAXF1657; PAXF1657, dose 0.014 μM",111%
same,viability at 0.041 µM,"PAXF1657; PAXF1657, dose 0.041 μM",116%
same,viability at 0.123 µM,"PAXF1657; PAXF1657, dose 0.123 μM",118%
same,viability at 0.37 µM,"PAXF1657; PAXF1657, dose 0.370 μM",115%
same,viability at 1.111 µM,"PAXF1657; PAXF1657, dose 1.111 μM",110%
same,viability at 3.333 µM,"PAXF1657; PAXF1657, dose 3.333 μM",102%
same,viability at 10 µM,"PAXF1657; PAXF1657, dose 10.000 μM",88.6%
same,viability at 30 µM,"PAXF1657; PAXF1657, dose 30.000 μM",69%
same,Mean intensity,"[1]; BXPC3, 0.1 μM",396.24
same,Normalized to DMSO,"[1]; BXPC3, 0.1 μM",0.99
same,Mean intensity,"[1]; BXPC3, 0.3 μM",445.015
same,Normalized to DMSO,"[1]; BXPC3, 0.3 μM",1.11
same,Mean intensity,"[1]; BXPC3, 1 μM",418.98
same,Normalized to DMSO,"[1]; BXPC3, 1 μM",1.04
same,Mean intensity,"[1]; BXPC3, 3 μM",189.24
same,Normalized to DMSO,"[1]; BXPC3, 3 μM",0.47
same,Mean intensity,"[1]; BXPC3, 10 μM",82.2
same,Normalized to DMSO,"[1]; BXPC3, 10 μM",0.20
same,Mean intensity,"[1]; BXPC3, 30 μM",76.19
same,Normalized to DMSO,"[1]; BXPC3, 30 μM",0.19
same,Mean intensity,"[1]; Miapaca, 0.1 μM",447.5
same,Normalized to DMSO,"[1]; Miapaca, 0.1 μM",1.09
same,Mean intensity,"[1]; Miapaca, 0.3 μM",461.465
same,Normalized to DMSO,"[1]; Miapaca, 0.3 μM",1.13
same,Mean intensity,"[1]; Miapaca, 1 μM",398.675
same,Normalized to DMSO,"[1]; Miapaca, 1 μM",0.97
same,Mean intensity,"[1]; Miapaca, 3 μM",386.35
same,Normalized to DMSO,"[1]; Miapaca, 3 μM",0.94
same,Mean intensity,"[1]; Miapaca, 10 μM",80.16
same,Normalized to DMSO,"[1]; Miapaca, 10 μM",0.20
same,Mean intensity,"[1]; Miapaca, 30 μM",75.66
same,Normalized to DMSO,"[1]; Miapaca, 30 μM",0.18
same,Mean intensity,"[1]; PAXF1657, 0.1 μM",617.13
same,Normalized to DMSO,"[1]; PAXF1657, 0.1 μM",0.97
same,Mean intensity,"[1]; PAXF1657, 0.3 μM",660.9
same,Normalized to DMSO,"[1]; PAXF1657, 0.3 μM",1.04
same,Mean intensity,"[1]; PAXF1657, 1 μM",574.375
same,Normalized to DMSO,"[1]; PAXF1657, 1 μM",0.90
same,Mean intensity,"[1]; PAXF1657, 3 μM",410.77
same,Normalized to DMSO,"[1]; PAXF1657, 3 μM",0.64
same,Mean intensity,"[1]; PAXF1657, 10 μM",326.68
same,Normalized to DMSO,"[1]; PAXF1657, 10 μM",0.51
same,Mean intensity,"[1]; PAXF1657, 30 μM",271.275
same,Normalized to DMSO,"[1]; PAXF1657, 30 μM",0.43
same,Mean intensity,"[1]; PAXF1997, 0.1 μM",461.65
same,Normalized to DMSO,"[1]; PAXF1997, 0.1 μM",1.07
same,Mean intensity,"[1]; PAXF1997, 0.3 μM",500.34
same,Normalized to DMSO,"[1]; PAXF1997, 0.3 μM",1.16
same,Mean intensity,"[1]; PAXF1997, 1 μM",455.7
same,Normalized to DMSO,"[1]; PAXF1997, 1 μM",1.06
same,Mean intensity,"[1]; PAXF1997, 3 μM",379.285
same,Normalized to DMSO,"[1]; PAXF1997, 3 μM",0.88
same,Mean intensity,"[1]; PAXF1997, 10 μM",296.635
same,Normalized to DMSO,"[1]; PAXF1997, 10 μM",0.69
same,Mean intensity,"[1]; PAXF1997, 30 μM",288.38
same,Normalized to DMSO,"[1]; PAXF1997, 30 μM",0.67
same,Mean intensity,"[1]; Panc1, 0.1 μM",477.265
same,Normalized to DMSO,"[1]; Panc1, 0.1 μM",1.16
same,Mean intensity,"[1]; Panc1, 0.3 μM",478.195
same,Normalized to DMSO,"[1]; Panc1, 0.3 μM",1.17
same,Mean intensity,"[1]; Panc1, 1 μM",509.365
same,Normalized to DMSO,"[1]; Panc1, 1 μM",1.24
same,Mean intensity,"[1]; Panc1, 3 μM",504.735
same,Normalized to DMSO,"[1]; Panc1, 3 μM",1.23
same,Mean intensity,"[1]; Panc1, 10 μM",254.47
same,Normalized to DMSO,"[1]; Panc1, 10 μM",0.62
same,Mean intensity,"[1]; Panc1, 30 μM",181.7
same,Normalized to DMSO,"[1]; Panc1, 30 μM",0.44
